The source made the active and inactive calls. No cut-off for these calls is given here.

Test [1] concerns the target T1, Mushroom tyrosinase (Agaricus bisporus) (UniProt O42713+Q00024+C7FF04+C7FF05). The test can be described thus: […] inhibition of mushroom tyrosinase using L-tyrosine as substrate by Lineweaver-Burk blot analysis.
The target in test [2] is T2, Mushroom tyrosinase (Agaricus bisporus, UniProt O42713+Q00024+C7FF04+C7FF05). The experiment in a line: Non-competitive inhibition of mushroom tyrosinase using L-tyrosine as substrate by Lineweaver-Burk blot analysis.
In test [3] the target is T2, Mushroom tyrosinase.
Description: Inhibition of mushroom tyrosinase using L-tyrosine as substrate
Test [4] concerns the target T2, Mushroom tyrosinase. The source holds these as a separate data set.
Description: Inhibition of mushroom tyrosinase using L-DOPA as substrate
The target in test [5] is T1, Mushroom tyrosinase (Agaricus bisporus). The test can be described thus: Reversible inhibition of mushroom tyrosinase using L-DOPA as substrate by Lineweaver-Burk plot analysis.
The target in test [6] is T2, Mushroom tyrosinase. The experiment in a line: Non-competitive inhibition of mushroom tyrosinase using L-DOPA as substrate by Lineweaver-Burk blot analysis.
In test [7] the target is T1, Mushroom tyrosinase (Agaricus bisporus). The experiment in a line: Reversible inhibition of mushroom tyrosinase using L-tyrosine as substrate by Lineweaver-Burk plot analysis.

As for `CC#CCOC1O[C@H](COCc2ccccc2)[C@@H](OCc2ccccc2)[C@H](OCc2ccccc2)[C@H]1OCc1ccccc1` (some centres not stated), the inhibition result in test [1] is “Active”. Moreover, the inhibitory constant (Ki) on Mushroom tyrosinase [2] worked out at 21 µM. In addition, the IC50 at Mushroom tyrosinase [3] came out at 54 µM; at Mushroom tyrosinase [4] it was 70.7 µM.
For the compound `CC#CCOC1O[C@H](COC)[C@@H](OCc2ccccc2)[C@H](OCc2ccccc2)[C@H]1OCc1ccccc1` (some centres not stated), the inhibition result in test [5] was “Active”. The compound further registered a Ki on Mushroom tyrosinase [6] of 52 µM. Also, the IC50 against Mushroom tyrosinase [3] was determined as 73.6 µM; against Mushroom tyrosinase [4] it was 45.4 µM.
Turning to `CC#CCOC[C@H]1OC(OCC#CC)[C@H](OCc2ccccc2)[C@@H](OCc2ccccc2)[C@@H]1OCc1ccccc1` (some centres not stated), the inhibition entry in test [7] was “Active”. Besides, the Ki on Mushroom tyrosinase [2] is 32 µM. Besides, the half-inhibitory concentration (IC50) is 72 µM on Mushroom tyrosinase [3] and over 500 µM against Mushroom tyrosinase [4].
In the case of `C#CCCOC1O[C@H](COCc2ccccc2)[C@@H](OCc2ccccc2)[C@H](OCc2ccccc2)[C@H]1OCc1ccccc1` (some centres not stated), the inhibition entry in test [5] was “Active”. This compound also displayed an inhibitory constant (Ki) on Mushroom tyrosinase [6] of 49 µM. Besides, the half-maximal inhibitory concentration (IC50) on Mushroom tyrosinase [3] turned out to be 150 µM; at Mushroom tyrosinase [4], 34.3 µM.
Regarding `CC#CCO[C@H]1O[C@@H]2CO[C@@H](c3ccccc3)O[C@H]2[C@H](OCc2ccccc2)[C@H]1OCc1ccccc1`, the IC50 at Mushroom tyrosinase [3] and on Mushroom tyrosinase [4] was over 500 µM throughout.
Consider `CC#CCO[C@@H]1O[C@H](COCc2ccccc2)[C@@H](OCc2ccccc2)[C@H](OCc2ccccc2)[C@H]1OCc1ccccc1`, for which the IC50 at Mushroom tyrosinase [3] is 179 µM; against Mushroom tyrosinase [4] it was over 500 µM.
In the case of `c1ccc(COC[C@H]2OC(OCc3ccccc3)[C@H](OCc3ccccc3)[C@@H](OCc3ccccc3)[C@@H]2OCc2ccccc2)cc1` (some centres not stated), the IC50 at Mushroom tyrosinase [3] and at Mushroom tyrosinase [4] was over 500 µM throughout.
Turning to `CC#CCO[C@@H]1O[C@@H]2CO[C@@H](c3ccccc3)O[C@H]2[C@H](OCc2ccccc2)[C@H]1OCc1ccccc1`, the half-inhibitory concentration (IC50) against Mushroom tyrosinase [3] and against Mushroom tyrosinase [4] was over 500 µM throughout.
Regarding `C#CCOC1O[C@H](CO)[C@@H](OCc2ccccc2)[C@H](OCc2ccccc2)[C@H]1OCc1ccccc1` (some centres not stated), the IC50 against Mushroom tyrosinase [3] and against Mushroom tyrosinase [4] was over 500 µM in each case.
On to `C#CCO[C@@H]1O[C@H](COCc2ccccc2)[C@@H](OCc2ccccc2)[C@H](OCc2ccccc2)[C@H]1OCc1ccccc1`, for which the IC50 on Mushroom tyrosinase [3] was 94.7 µM; on Mushroom tyrosinase [4] it was over 500 µM.
Regarding `C#CCOC1O[C@H](COCc2ccccc2)[C@@H](OCc2ccccc2)[C@H](OCc2ccccc2)[C@H]1OCc1ccccc1` (some centres not stated), the values for the IC50 against Mushroom tyrosinase [3] and against Mushroom tyrosinase [4] were 81.9 µM and over 500 µM, respectively.
With `C#CCCOC1O[C@H](COC(C)=O)[C@@H](OCc2ccccc2)[C@H](OCc2ccccc2)[C@H]1OCc1ccccc1` (some centres not stated), the 50% inhibitory concentration (IC50) against Mushroom tyrosinase [3] was 268 µM; at Mushroom tyrosinase [4], over 500 µM.

For the origin of these results see ChEMBL document CHEMBL4622892, “New class of alkynyl glycoside analogues as tyrosinase inhibitors” (Bioorg Med Chem Lett, 2020).
